EC50 data for one molecule are collected here from PubChem BioAssay AID651927 (Vanderbilt Specialized Chemistry Center, 2012).

The structures appear in SMILES notation.

The test deals with Muscarinic acetylcholine receptor M5 (Homo sapiens) (UniProt P08912). Description: ACh response potentiation at M5 – CHO cells, human M5 (AID 651927). To be noted: CHO-K1 hM5, Fluo-4 calcium flux, ACh EC20 potentiation.

In general, EC50 refers to the concentration at which the effect is half-maximal.

Sequence of Muscarinic acetylcholine receptor M5 (Homo sapiens) (P08912 whole entry, looked up): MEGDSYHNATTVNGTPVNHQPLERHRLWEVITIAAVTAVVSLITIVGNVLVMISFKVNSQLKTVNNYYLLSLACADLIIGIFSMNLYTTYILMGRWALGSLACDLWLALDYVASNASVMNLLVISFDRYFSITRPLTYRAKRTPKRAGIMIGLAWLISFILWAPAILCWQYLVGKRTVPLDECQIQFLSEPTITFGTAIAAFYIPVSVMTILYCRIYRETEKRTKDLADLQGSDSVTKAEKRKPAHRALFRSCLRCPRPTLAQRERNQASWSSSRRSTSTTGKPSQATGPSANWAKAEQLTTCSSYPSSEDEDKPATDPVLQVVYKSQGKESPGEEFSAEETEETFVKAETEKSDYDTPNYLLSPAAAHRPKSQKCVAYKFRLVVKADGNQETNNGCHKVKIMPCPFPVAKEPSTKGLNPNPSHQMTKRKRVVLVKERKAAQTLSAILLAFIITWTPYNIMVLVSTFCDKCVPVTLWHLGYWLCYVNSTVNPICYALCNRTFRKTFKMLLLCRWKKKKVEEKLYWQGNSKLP

On to `O=C1C(=O)N(CCOc2ccccc2)c2ccc(OC(F)(F)F)cc21`, for which the half-maximal effective concentration (EC50) is 589 nM.
